Measured values as given in patent US5273991A, “Imidazole-containing compositions and methods of use thereof analogs of distamycin” (Research Corporation Technologies, Inc., priority 1992, dated 1993).

How the values were obtained:
Assay in all cases: NCI cytotoxicity screen (SRB)
Format in all cases: cell-based, human
A549/ATCC = conditions: 48 h; Non-Small Cell Lung Cancer A549/ATCC
Procedure: (§1) Compounds 6, 7, 9 and 10 were tested for cytotoxic properties by the National Cancer Institute, Bethesda, Md. The anticancer drug screen utilized a panel of 60 human tumor cell lines organized into subpanels representing leukemia, melanoma, and cancers of the lung, colon, kidney, ovary and central nervous system and is described by Monks et al. (1991) Journal of the National Cancer Institute 83, 757, which is incorporated herein by reference.
(§2) Cell lines were inoculated onto microtiter plates and preincubated for 24-28 hours. 100 μL aliquots of each compound were added to the appropriate microtiter plate wells in each of five 10-fold dilutions starting from a maximum concentration of 10^-4 M in water or DMSO. Cultures were then incubated for an additional 48 hours. Cells were then fixed in situ, followed by staining with sulforhodamine B (SRB), which binds to basic amino acids of cellular macromolecules. The solubilized stain was measured spectrophotometrically to determine relative cell growth or viability in treated and untreated cells. The monoimidazole analogs of Compounds 6, 7, 9 and 10 and the formamido analog corresponding to Compounds 7 and 10 are devoid of activity against the panel of cancer cell lines in Table III.

COLO-205 = conditions: 48 h; Colon Cancer COLO-205
Procedure: as §1, §2

DMS-273 = conditions: 48 h; Small Cell Lung Cancer DMS-273
Procedure: as §1, §2

HCC-2998 = conditions: 48 h; Colon Cancer HCC-2998
Procedure: as §1, §2

HCT-116 = conditions: 48 h; Colon Cancer HCT-116
Procedure: as §1, §2

HCT-15 = conditions: 48 h; Colon Cancer HCT-15
Procedure: as §1, §2

HOP-62 = conditions: 48 h; Non-Small Cell Lung Cancer HOP-62
Procedure: as §1, §2

K-562 = conditions: 48 h; Leukemia K-562
Procedure: as §1, §2

KM12 = conditions: 48 h; Colon Cancer KM12
Procedure: as §1, §2

KM20L2 = conditions: 48 h; Colon Cancer KM20L2
Procedure: as §1, §2

MALME-3M = conditions: 48 h; Melanoma MALME-3M
Procedure: as §1, §2

Molt-4 = conditions: 48 h; Leukemia Molt-4
Procedure: as §1, §2

NCI-H226 = conditions: 48 h; Non-Small Cell Lung Cancer NCI-H226
Procedure: as §1, §2

NCI-H23 = conditions: 48 h; Non-Small Cell Lung Cancer NCI-H23
Procedure: as §1, §2

NCI-H322M = conditions: 48 h; Non-Small Cell Lung Cancer NCI-H322M
Procedure: as §1, §2

NCI-H460 = conditions: 48 h; Non-Small Cell Lung Cancer NCI-H460
Procedure: as §1, §2

NCI-H522 = conditions: 48 h; Non-Small Cell Lung Cancer NCI-H522
Procedure: as §1, §2

SF-295 = conditions: 48 h; CNS Cancer SF-295
Procedure: as §1, §2

SF-539 = conditions: 48 h; CNS Cancer SF-539
Procedure: as §1, §2

SW-620 = conditions: 48 h; Colon Cancer SW-620
Procedure: as §1, §2

U251 = conditions: 48 h; CNS Cancer U251
Procedure: as §1, §2

DLD-1 = conditions: 48 h; Colon Cancer DLD-1
Procedure: as §1, §2

DMS-114 = conditions: 48 h; Small Cell Lung Cancer DMS-114
Procedure: as §1, §2

EKVX = conditions: 48 h; Non-Small Cell Lung Cancer EKVX
Procedure: as §1, §2

HT29 = conditions: 48 h; Colon Cancer HT29
Procedure: as §1, §2

SF-268 = conditions: 48 h; CNS Cancer SF-268
Procedure: as §1, §2

XF498 = conditions: 48 h; CNS Cancer XF498
Procedure: as §1, §2

| Compound | IC50 (A549/ATCC) [µM] | IC50 (COLO-205) [µM] | IC50 (DMS-273) [µM] | IC50 (HCC-2998) [µM] | IC50 (HCT-116) [µM] | IC50 (HCT-15) [µM] | IC50 (HOP-62) [µM] | IC50 (K-562) [µM] | IC50 (KM12) [µM] | IC50 (KM20L2) [µM] | IC50 (MALME-3M) [µM] | IC50 (Molt-4) [µM] | IC50 (NCI-H226) [µM] | IC50 (NCI-H23) [µM] | IC50 (NCI-H322M) [µM] | IC50 (NCI-H460) [µM] | IC50 (NCI-H522) [µM] | IC50 (SF-295) [µM] | IC50 (SF-539) [µM] | IC50 (SW-620) [µM] | also measured |
| --- | --- | --- | --- | --- | --- | --- | --- | --- | --- | --- | --- | --- | --- | --- | --- | --- | --- | --- | --- | --- | --- |
| CN(C)CCNC(=O)c1nc(NC(=O)c2nc(NC(=O)CCCc3ccc(N(CCCl)CCCl)cc3)cn2C)cn1C [Compound 9, N-(N',N'-dimethylaminoethyl)-1-methyl-4-{4-[4,4-bis(2-chloroethyl)aminophenyl-1-butanamido]-1-methylimidazole-2-carboxamido}imidazole-2-carboxamide] | 78.5 | 81.6 | 42.7 | 55.1 | 50.2 | 61.3 | 75.5 | 54.2 | 60.9 | 53.4 | 56.3 | 71.3 | 47.9 | 67.3 | 77.6 | 43.5 | 86.6 | 51.9 | 47.9 | 77.3 | IC50 (U251): 46.2 µM |
| CN(C)CCNC(=O)c1nc(NC(=O)c2nc(NC(=O)c3nc(NC(=O)CCCc4ccc(N(CCCl)CCCl)cc4)cn3C)cn2C)cn1C [Compound 10, N-(N',N'-dimethylaminoethyl)-1-methyl-4-{1-methyl-4-[4-(4,4-bis(2-chloroethyl)aminophenyl-1-butanamido)-1-methylimidazole-2-carboxamido]imidazole-2-carboxamido}imidazole-2-carboxamide] | 10.7 | 11.4 | 6.78 | 38.5 | 5.76 | 45.3 | 44 | 7.05 | 24.1 | 8.63 | 52.7 | 3.19 | 67.5 | 34.8 | 23.9 | 6.13 | 6.77 | 9.74 | 6.13 | 9.3 | IC50 (DLD-1): 42.2 µM; IC50 (DMS-114): 7.49 µM; IC50 (EKVX): 87.8 µM; IC50 (HT29): 51 µM; IC50 (SF-268): 31.3 µM; IC50 (U251): 5.27 µM; IC50 (XF498): 5.79 µM |
